Assay results as given in patent publication US10077288B2, “Hydroxystatin derivatives for the treatment of arthrosis” (Merck Patent GmbH, priority 2012, dated 2018).
*1 amine or outer side, *2 acyl side, *3 side chain or, on linkers, in order; H or OH if unused. Where a SMILES comes first, the peptide text is derived from it. [ ]: non-standard residue; d: D form. The star is where a group is joined. Ahppa(3S,4S) = O=C(C[C@H](O)[C@H](Cc1ccccc1)N[*:1])[*:2]; PhAc = O=C(Cc1ccccc1)*; OBn = c1ccc(CO*)cc1

These molecules were tested against T1, cathepsin D isolated from the human liver (Homo sapiens, UniProt P07339) (assay: In-vitro fluorescence assay for identification of cathepsin D inhibitors). Details: human liver cathepsin D 1.4 nM, pH 5.5; read-out: CatD assay IC50-(M).
T1 construct: cathepsin D isolated from the human liver (Sigma-Aldrich); purchased Sigma-Aldrich; host or cells: human liver (tissue-derived, not recombinant)
T1 sequence (P07339 65-161 limits assumed): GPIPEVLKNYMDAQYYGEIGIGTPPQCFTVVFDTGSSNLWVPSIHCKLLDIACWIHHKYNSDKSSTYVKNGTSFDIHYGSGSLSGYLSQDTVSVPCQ
T1 sequence (P07339 169-412 limits assumed): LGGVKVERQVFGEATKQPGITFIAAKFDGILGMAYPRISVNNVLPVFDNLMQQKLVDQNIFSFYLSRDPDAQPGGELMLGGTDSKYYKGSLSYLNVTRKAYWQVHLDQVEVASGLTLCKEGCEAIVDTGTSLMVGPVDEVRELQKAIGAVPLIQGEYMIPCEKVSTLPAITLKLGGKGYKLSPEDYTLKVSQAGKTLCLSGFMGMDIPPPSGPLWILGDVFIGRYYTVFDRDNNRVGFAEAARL
Format: biochemical
Protocol: EXAMPLE 4: IN-VITRO FLUORESCENCE ASSAY FOR IDENTIFICATION OF CATHEPSIN D INHIBITORS
In order to identify modulators of cathepsin D activity, a continuous enzymatic test was carried out with a synthetic peptide which carries a fluorescent group (MCA=(7-methoxycoumarin-4-yl)acetyl) which is quenched by energy transfer from a Dpn (2,4 dinitrophenyl) group on the same molecule, in Greiner 384-well nb microtitre plates. Cleavage of the peptidic substrate by cathepsin D causes an increase in the fluorescence intensity. In order to determine the efficacy of substances, the time-dependent increase in the fluorescence intensity in the presence of the substance was compared with the time-dependent increase in fluorescence in the absence of substances. The reference substance used was pepstatin A (Sigma-Aldrich). The substrate used was MCA-GKPILFFRLK(Dnp)d-R—NH2 (Enzo Life Sciences, Lörrach). The enzyme employed was cathepsin D isolated from the human liver (Sigma-Aldrich) in a final concentration of 1.4 nM. The test was carried out in 100 mM sodium acetate buffer, 1.25% (v/v) of DMSO, 0.25% (w/v) of Chaps, pH 5.5. 2 μl of each substance solution with serially diluted substance concentration were added to in each case 4 μl of cathepsin D solution and incubated at room temperature for 10 min. The reaction was started by addition of 2 μl of substrate solution (final concentration 5 μM). After carrying out a starting-point fluorescence measurement (excitation wavelength 340 nm/emission wavelength 450 nm) using an Envision multilabel reader (Perkin Elmer), the reaction was incubated at room temperature for 60 min. The amount of peptide fragment cleaved off during the reaction time was subsequently measured by determination of the increase in the fluorescence intensity at 450 nm (excitation wavelength 340 nm).
Molecule `CC[C@H](C)[C@H](NC(=O)C[C@H](O)[C@H](Cc1ccccc1)NC(=O)[C@@H](NC(=O)COc1ccc(C)c(C)c1)C(C)C)C(=O)N[C@H](C(=O)O)C(C)C` [Compound 29, (S)-2-[(2S,3S)-2-((3S,4S)-4-{(S)-2-[2-(3,4-dimethylphenoxy)acetylamino]-3-methylbutyrylamino}-3-hydroxy-5-phenylpentanoylamino)-3-methylpentanoylamino]-3-methylbutyric acid] has an IC50 of 1e-07 M. `CC[C@H](C)[C@H](NC(=O)C[C@H](O)[C@H](Cc1ccccc1)NC(=O)[C@@H](NC(=O)Cc1cccc2ccccc12)C(C)C)C(=O)N[C@H](C(=O)O)C(C)C` [Compound 30, (S)-2-((2S,3S)-2-{(3S,4S)-3-hydroxy-4-[(S)-3-methyl-2-(2-naphthalen-1-ylacetylamino)butyrylamino]-5-phenylpentanoylamino}-3-methylpentanoylamino)-3-methylbutyric acid] showed an IC50 of 8.5e-08 M. `CC[C@H](C)[C@H](NC(=O)C[C@H](O)[C@H](Cc1ccccc1)NC(=O)[C@@H](NC(=O)c1cccc(-c2ccccc2)c1)C(C)C)C(=O)N[C@H](C(=O)O)C(C)C` [Compound 31, (S)-2-[(2S,3S)-2-((3S,4S)-4-{(S)-2-[(biphenyl-3-carbonyl)amino]-3-methylbutyrylamino}-3-hydroxy-5-phenylpentanoylamino)-3-methylpentanoylamino]-3-methylbutyric acid] was tested, and the IC50 was 1.6e-07 M. With `CC[C@H](C)[C@H](NC(=O)C[C@H](O)[C@H](Cc1ccccc1)NC(=O)[C@@H](NC(=O)C(c1ccccc1)c1ccccc1)C(C)C)C(=O)N[C@H](C(=O)OCc1ccccc1)C(C)C` [Compound 32, benzyl (S)-2-{(2S,3S)-2-[(3S,4S)-4-((S)-2-diphenylacetylamino-3-methylbutyrylamino)-3-hydroxy-5-phenylpentanoylamino]-3-methylpentanoylamino}-3-methylbutyrate] the IC50 was 3.2e-07 M. `CC[C@H](C)[C@H](NC(=O)C[C@H](O)[C@H](Cc1ccccc1)NC(=O)[C@@H](NC(=O)C(c1ccccc1)c1ccccc1)C(C)C)C(=O)N[C@H](C(=O)O)C(C)C` [Compound 33, (S)-2-{(2S,3S)-2-[(3S,4S)-4-((S)-2-diphenylacetylamino-3-methyl-butyrylamino)-3-hydroxy-5-phenylpentanoylamino]-3-methylpentanoylamino}-3-methylbutyric acid] was tested, and the IC50 was 1.6e-08 M. For `CCOc1cccc(CC(=O)N[C@H](C(=O)N[C@@H](Cc2ccccc2)[C@@H](O)CC(=O)N[C@H](C(=O)N[C@H](C(=O)OCc2ccccc2)C(C)C)[C@@H](C)CC)[C@@H](C)CC)c1` [Compound 34, benzly (S)-2-[(2S,3S)-2-((3S,4S)-4-{(S)-2-[2-(3-ethoxyphenyl)-acetylamino]-3-methyl-1-(S)-oxopentylamino}-3-hydroxy-5-phenylpentanoylamino)-3-methylpentanoylamino]-3-methylbutyrate], the IC50 was 2.7e-07 M. In the case of `CC[C@H](C)[C@H](NC(=O)C[C@H](O)[C@H](Cc1ccccc1)NC(=O)[C@@H](NC(=O)[C@@H](O)c1ccccc1)C(C)C)C(=O)N[C@H](C(=O)OCc1ccccc1)C(C)C` [Compound 35, benzly (S)-2-((2S,3S)-2-{(3S,4S)-3-hydroxy-4-[(S)-2-((S)-2-hydroxy-2-phenylacetylamino)-3-methylbutyrylamino]-5-phenylpentanoylamino}-3-methylpentanoylamino)-3-methylbutyrate], the IC50 is reported as 5.8e-07 M. For `CCOc1cccc(CC(=O)N[C@H](C(=O)N[C@@H](Cc2ccccc2)[C@@H](O)CC(=O)N[C@H](C(=O)N[C@H](C(=O)O)C(C)C)[C@@H](C)CC)[C@@H](C)CC)c1` [Compound 36, (S)-2-[(2S,3S)-2-((3S,4S)-3-hydroxy-4-{(S)-methyl-1-(S)-2-[2-(3-ethoxyphenyl)acetylamino]-3-oxopentylamino}-5-phenylpentanoylamino)-3-methylpentanoylamino]-3-methylbutyric acid], the IC50 was 4.3e-08 M. For `CC[C@H](C)[C@H](NC(=O)C[C@H](O)[C@H](Cc1ccccc1)NC(=O)[C@@H](NC(=O)[C@@H](O)c1ccccc1)C(C)C)C(=O)N[C@H](C(=O)O)C(C)C` [Compound 37, (S)-2-((2S,3S)-2-{(3S,4S)-3-hydroxy-4-[(S)-2-((S)-2-hydroxy-2-phenylacetylamino)-3-methylbutyrylamino]-5-phenylpentanoylamino}-3-methylpentanoylamino)-3-methylbutyric acid], the IC50 was 3.1e-07 M. For `CC[C@H](C)[C@H](NC(=O)C[C@H](O)[C@H](Cc1ccccc1)NC(=O)[C@@H](NC(=O)C(CC)(CC)CC)C(C)C)C(=O)N[C@H](C(=O)O)C(C)C` [Compound 38, (S)-2-((2S,3S)-2-{(3S,4S)-4-[(S)-2-(2,2-diethylbutyrylamino)-3-methylbutyrylamino]-3-hydroxy-5-phenylpentanoylamino}-3-methylpentanoylamino)-3-methylbutyric acid], the IC50 was 7e-06 M. Molecule `CC[C@H](C)[C@H](NC(=O)C[C@H](O)[C@H](Cc1ccccc1)NC(=O)[C@@H](NC(=O)Cc1cccc(OCCNC(=O)OC(C)(C)C)c1)[C@@H](C)CC)C(=O)N[C@H](C(=O)O)C(C)C` [Compound 39, (S)-2-{(2S,3S)-2-[(3S,4S)-4-((S)-2-{2-[3-(2-tert-butoxycarbonyl-aminoethoxy)phenyl]acetylamino}-3-methyl-1-(S)-oxopentylamino)-3-hydroxy-5-phenylpentanoylamino]-3-methylpentanoylamino}-3-methylbutyric acid] has an IC50 of 3.9e-08 M. For `CCCOc1cccc(CC(=O)N[C@H](C(=O)N[C@@H](Cc2ccccc2)[C@@H](O)CC(=O)N[C@H](C(=O)N[C@H](C(=O)O)C(C)C)[C@@H](C)CC)[C@@H](C)CC)c1` [Compound 40, (S)-2-[(2S,3S)-2-((3S,4S)-3-hydroxy-4-{(2S,3S)-3-methyl-2-[2-(3-propoxyphenyl)acetylamino]pentanoylamino}-5-phenylpentanoylamino)-3-methylpentanoylamino]-3-methylbutyric acid], the IC50 was 1.7e-08 M. With `CC[C@H](C)[C@H](NC(=O)C[C@H](O)[C@H](Cc1ccccc1)NC(=O)[C@@H](NC(=O)Cc1cccc(OCCN)c1)[C@@H](C)CC)C(=O)N[C@H](C(=O)O)C(C)C` [Compound 41, (S)-2-{(2S,3S)-2-[(3S,4S)-4-((S)-2-{2-[3-(2-aminoethoxy)phenyl]-acetylamino}-3-methyl-1-(S)-oxopentylamino)-3-hydroxy-5-phenylpentanoylamino]-3-methylpentanoylamino}-3-methylbutyric acid] the IC50 was 4.8e-07 M. `CCC(CC)NC(=O)[C@@H](NC(=O)C[C@H](O)[C@H](Cc1ccccc1)NC(=O)[C@@H](NC(=O)[C@H](CC(C)C)NC(=O)CC(C)C)C(C)C)[C@@H](C)CC` [Compound 42, N-[(1S,2S)-1-(1-ethylpropylcarbamoyl)-2-methylbutyl]-(2S,5S)-3-hydroxy-4-{(S)-3-methyl-2-[(S)-4-methyl-2-(3-methylbutyrylamino)-pentanoylamino]butyrylamino}-5-phenylpentanamide] gave an IC50 of 1.3e-09 M. For `CCC(CC)NC(=O)[C@@H](NC(=O)C[C@H](O)[C@H](Cc1ccccc1)NC(=O)[C@@H](NC(=O)[C@H](CC(C)C)NC(=O)Cc1ccccc1)C(C)C)[C@@H](C)CC` [Compound 43, N-[(1S,2S)-1-(1-ethylpropylcarbamoyl)-2-methylbutyl]-(2S,5S)-3-hydroxy-4-[(S)-3-methyl-2-((S)-4-methyl-2-phenylacetylaminopentanoylamino)-1-oxobutylamino]-5-phenylpentanamide], the IC50 was 3.5e-09 M. `CC[C@H](C)[C@H](NC(=O)C[C@H](O)[C@H](Cc1ccccc1)NC(=O)[C@@H](NC(=O)[C@H](CC(C)C)NC(=O)Cc1ccccc1)C(C)C)C(=O)N[C@H](C(=O)OCc1ccccc1)C(C)C` [Compound 44, benzyl (S)-2-((2S,3S)-2-{(3S,4S)-3-hydroxy-4-[(S)-3-methyl-2-((S)-4-methyl-2-phenylacetylaminopentanoylamino)butyrylamino]-5-phenylpentanoylamino}-3-methylpentanoylamino)-3-methylbutyrate] (PhAc-LV[Ahppa(3S,4S)]IV-OBn) gave an IC50 of 2.1e-09 M. With `CC[C@H](C)[C@H](NC(=O)C[C@H](O)[C@H](Cc1ccccc1)NC(=O)[C@@H](NC(=O)[C@H](CC(C)C)NC(=O)Cc1ccccc1)C(C)C)C(=O)N[C@H](C(=O)O)C(C)C` [Compound 45, (S)-2-((2S,3S)-2-{(3S,4S)-3-hydroxy-4-[(S)-3-methyl-2-((S)-4-methyl-2-phenylacetylaminopentanoylamino)butyrylamino]-5-phenylpentanoylamino}-3-methylpentanoylamino)-3-methylbutyric acid] (PhAc-LV[Ahppa(3S,4S)]IV-OH) the IC50 was 3.5e-10 M.
